Where a name gives a salt, the structure may show the parent alone.
Test system: plaque type psoriasis vulgaris
Test: Simple-blind, own-control topical gel treatment of five psoriasis patients (Example 1)
Type: in vivo, human
Description: The gel used was of the following composition:
Patients for the treatment of psoriasis (five patients) were chosen as having a relatively secure diagnosis of plaque type psoriasis vulgaris with silvery scales covering the surface of the lesion. This disease tends to be chronic, and often difficult to treat with topical agents. All of the five patients treated were diagnosed by a dermatologist and had the diagnosis for over three years. None of these patients had arthritis.
After a treatment, which may vary from two weeks to one month, there was a considerable improvement both scaling, size, thickness and erythematous appearance of the lesions. The lesions in these patients were all symmetric and each patient was treated with the formulation of the present invention without the active compound on one side and with the active compound on the other. Each patient was treated as their own control (simple blind).
Two patients were treated with galantamine and three patients with donepezil.

| SMILES | adverse effect (human, in vivo) | adverse effect (gel containing 0.1% active compound, two days twice daily) |
| --- | --- | --- |
| COc1cc2c(cc1OC)C(=O)C(CC1CCN(Cc3ccccc3)CC1)C2 (centres unmarked) [donepezil, donepezil hydrochloride] | no adverse effect was noticed | – |
| COc1ccc2c3c1O[C@H]1C[C@@H](O)C=C[C@@]31CCN(C)C2 [galantamine, galantamine hydrobromide] | – | no adverse effect was noticed |
